Where two headings read alike, the source gives them in different places. One block for each molecule: values may come before it. Peptide text beside a SMILES is read from it. * marks the point of attachment. Biotin = O=C1N[C@H]2[C@H](CS[C@H]2CCCCC(=O)*)N1; Ahx = NCCCCCC(=O)O
Key:
p67-isoform of Dab2 = p67-isoform of Dab2 (Homo sapiens (Human), UniProt P98082); assay: Peptide pull-down from CFBE cell lysates and western blot; format: binding; conditions: CFBE cell lysates, western blot
Method: (§1) Peptide Pull-down and Western Blotting. Streptavidin-paramagnetic particles (Promega) were washed twice with wash buffer (50 mM Tris pH 8.0, 150 mM NaCl, 2 mM EGTA, 2 mM EDTA, 5% glycerol, 1 mM DTT) and incubated with 20 μM BT-STA02 (N-terminally biotinylated STA02) for 1 hour on a rotator at 4° C. Beads were then washed twice with wash buffer and once with lysis buffer (50 mM Tris pH 8.0, 150 mM NaCl, 2 mM EGTA, 2 mM EDTA, 5% glycerol, 1 mM DTT, 1% IGEPAL, complete protease inhibitor tablet (Roche)) before incubation with cell lysate. CFBE cells were washed twice with cold PBS, incubated with lysis buffer for 20 minutes shaking at 4° C., scraped, passed through a 27G1/2 syringe, and spun at 13000 rpm for 15 minutes at 4° C. The supernatant was incubated with BT-STA02-coated beads for 2 hours on a rotator at 4° C. Beads were then washed twice with wash buffer and bound protein was eluted with Laemmli sample buffer (Bio-Rad) at 45° C. for 10 minutes. Samples were run on a 7.5% SDS-PAGE gel and probed with anti-Dab2 (BD Biosciences) or anti-p96 Dab2 (Epitomics).
(§2) Since Dab2 is a multi-modular adaptor protein, it was determined whether STA02 binding to the DH domain occurred with the full-length (FL) protein and in the context of other cellular interacting partners. To this end, the binding of STA02 to FL-Dab2 from bronchial epithelial (CFBE) cell lysates was tested in a pull-down assay. […]

p96-isoform of Dab2 = p96-isoform of Dab2 (Homo sapiens (Human), UniProt P98082); assay: as above; format: binding; conditions: CFBE cell lysates, western blot
Chain of p96-isoform of Dab2 (P98082 whole entry, canonical isoform): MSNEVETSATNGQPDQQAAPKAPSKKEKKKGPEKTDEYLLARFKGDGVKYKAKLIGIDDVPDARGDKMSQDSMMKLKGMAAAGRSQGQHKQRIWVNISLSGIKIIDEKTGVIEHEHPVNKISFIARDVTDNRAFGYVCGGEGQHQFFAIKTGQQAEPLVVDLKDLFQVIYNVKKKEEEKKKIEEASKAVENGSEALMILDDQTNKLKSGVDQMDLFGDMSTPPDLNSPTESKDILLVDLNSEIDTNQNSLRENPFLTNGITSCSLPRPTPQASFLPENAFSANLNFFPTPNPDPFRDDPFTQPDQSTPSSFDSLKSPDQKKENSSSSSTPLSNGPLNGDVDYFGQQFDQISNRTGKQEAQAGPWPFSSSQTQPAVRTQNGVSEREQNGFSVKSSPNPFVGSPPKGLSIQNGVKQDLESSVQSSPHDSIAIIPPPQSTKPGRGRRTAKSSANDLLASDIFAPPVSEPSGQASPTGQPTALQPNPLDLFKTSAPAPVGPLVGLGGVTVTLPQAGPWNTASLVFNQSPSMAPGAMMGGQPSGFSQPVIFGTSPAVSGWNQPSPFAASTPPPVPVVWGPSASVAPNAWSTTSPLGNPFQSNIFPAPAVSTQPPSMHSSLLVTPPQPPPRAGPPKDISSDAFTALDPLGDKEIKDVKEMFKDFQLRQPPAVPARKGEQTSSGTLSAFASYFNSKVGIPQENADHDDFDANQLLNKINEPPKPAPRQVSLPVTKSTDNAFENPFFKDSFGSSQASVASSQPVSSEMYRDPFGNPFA
Method: as §1, §2

[1] = system: subjects with the G551D mutation; conditions: 48-week clinical trial; cited from earlier work
Dab2-DH domain [2] = target: T1, Dab2-DH domain (Homo sapiens (Human), UniProt P98082); assay: Fluorescence polarization competition binding of unlabeled peptides (reporter F*-STA02); conditions: STA02 compared to STA01
T1 sequence (P98082 33-191): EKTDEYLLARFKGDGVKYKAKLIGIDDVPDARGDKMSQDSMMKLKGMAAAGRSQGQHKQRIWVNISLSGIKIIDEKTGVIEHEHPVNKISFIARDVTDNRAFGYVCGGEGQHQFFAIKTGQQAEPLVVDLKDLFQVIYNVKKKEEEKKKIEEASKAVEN
Method: Fluorescence Polarization. Fluorescence polarization (FP) data were measured on a microplate reader (Tecan Infinite M1000, Mannedorf, Switzerland) at 27° C. […] Plates were mixed by vibration, centrifuged for 2 minutes at 1200 g to remove air bubbles and allowed to equilibrate for 30 minutes at room temperature before measurement. […] Unlabeled competitor peptides were serially diluted and mixed with the protein-reporter mix. […] [formula] where [P]tot=total protein concentration and Kd=equilibrium dissociation constant of [PL]. Competition isotherms were fit using a non-linear least-squares algorithm implemented in EXCEL using the SOLVER function. rexp was fit to: [formula] where the free protein concentration [P] in the presence of both the reporter and competitive inhibitor was calculated as a function of the total protein and ligand concentrations and the equilibrium dissociation constant Kd (known) and Ki (fit), respectively, by exact analytical solution of the resulting cubic equation (Wang, et al. (1995) Biotechnol. Prog. 11:558-64).

Dab2-DH domain [3] = target: T1, Dab2-DH domain; assay: Isothermal titration calorimetry; format: binding
Method: Isothermal Titration calorimetry. Dab2-DH protein was dialyzed versus 150 mM NaCl, 25 mM Tris pH 8.0, and 0.02% NaN3 or 150 mM NaCl, 25 mM NaH2PO4/Na2HPO4 pH 7.4, and 0.02% NaN3. Peptides were solubilized in recovered and degassed dialysis buffer. […] Thus, to maintain a constant DMSO concentration between the cell chamber (protein solution) and the syringe (peptide solution), 1-2% DMSO was added to the ITC-protein solution. Experiments were performed at 15, 25, or 35±0.2° C. on a MICROCAL VP-ITC calorimeter. A 2 μL peptide injection over 4.1 seconds preceded 30-10 μL injections over 300 seconds each. The system was allowed to equilibrate (reach baseline) between injections for 300 seconds while stirring at a speed of 300 rpm. ITC thermograms were fit to a single-site binding model using Origin software package v11. The ITC data were presented by showing the baseline-adjusted titration as heat flow versus time (top) and the peak-integrated concentration-normalized molar heat flow per injection versus the peptide: protein molar ratio (bottom). To account for the contribution of protein, peptide, and buffer protonation enthalpies to the binding enthalpies and consequently the binding constants, titrations in buffers with known and distinct heats of ionization (Tris and Phosphate buffers) were conducted.

CF patients = conditions: in combination with KALYDECO; cited from earlier work
Dab2-DH domain [4] = target: T1, Dab2-DH domain; assay: Fluorescence polarization competition assay to identify small molecule inhibitors; format: binding; set-up: key to Ki: n.a., not active; +, fluorescence change with FP; conditions: FP competition
Method: Fluorescence Polarization Competition Assay to Identify Small Molecule Inhibitors. […] Unlabeled competitor peptide (STA02) or compound hits were serially diluted and mixed with the protein-reporter mix. Percent DMSO in all samples was 1%. Plates were mixed by vibration, centrifuged at 1200 g for 2 minutes and allowed to equilibrate at room temperature for 30-45 minutes before measurement. Fluorescence polarization was measured at an excitation wavelength of 470±5 nm and an emission wavelength of 525±20 nm. Data analysis and calculation of binding affinities were as described above.
To test the validity of these hits on a smaller scale and to quantify the binding potencies (Ki values), an FP competition assay was carried out.

CFBE cells = assay: Toxicity assay (LDH); format: cell-based, human; conditions: for toxicity, of maximum toxicity (1% TRITON): 3 or 12 hours
Method: Toxicity and Cell Viability Assays. CFBE cells were seeded at 5×10^3 in 96-well plates. Cells were treated in fetal bovine serum (FBS)-free minimum essential medium (MEM, Gibco). Assays were performed and measured according to the CYTOTOX 96 Non-Radioactive cytotoxicity Assay (G1780) kit (Promega) and the […] 96 Aqueous One solution Cell proliferation Assay kit (Promega) instructions. Percent toxicity for the LDH assay was calculated as: […]
A background signal of 0.2% DMSO in media from a well without cells was subtracted from all readings before the above-referenced calculations.

ΔF508-CFTR = ΔF508-CFTR (Homo sapiens (Human), UniProt P13569, DEL508-508); assay: Short-circuit current (Isc), chloride currents in combination therapy; conditions: for chloride currents: 20 μM, in parallel with VX809 0.1 μM (48 hours) and Kalydeco (acutely), CFBE cells
[5] = reporter F*-STA02, read-out: Ki

Chain of p67-isoform of Dab2 (P98082 other isoform, or with tags, fused parts or gaps): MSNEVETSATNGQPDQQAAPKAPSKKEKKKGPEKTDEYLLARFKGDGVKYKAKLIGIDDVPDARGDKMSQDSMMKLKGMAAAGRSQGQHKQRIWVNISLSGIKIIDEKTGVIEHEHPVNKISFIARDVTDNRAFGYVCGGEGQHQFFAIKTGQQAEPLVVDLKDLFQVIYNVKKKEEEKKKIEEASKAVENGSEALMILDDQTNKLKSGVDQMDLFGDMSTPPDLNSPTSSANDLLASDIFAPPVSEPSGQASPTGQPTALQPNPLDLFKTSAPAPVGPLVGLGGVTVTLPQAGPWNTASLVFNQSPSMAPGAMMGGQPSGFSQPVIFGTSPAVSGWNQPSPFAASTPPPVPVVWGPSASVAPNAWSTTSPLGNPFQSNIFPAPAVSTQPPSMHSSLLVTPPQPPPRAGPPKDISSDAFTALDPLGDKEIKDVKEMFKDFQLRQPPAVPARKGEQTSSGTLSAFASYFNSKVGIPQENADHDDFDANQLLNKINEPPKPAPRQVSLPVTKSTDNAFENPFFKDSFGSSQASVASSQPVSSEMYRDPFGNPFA

binding of p67-isoform of Dab2 (p67-isoform of Dab2): did not
binding of p96-isoform of Dab2 (p96-isoform of Dab2): bound
Structure (SMILES): CSCC[C@H](NC(=O)[C@H](CC(N)=O)NC(=O)[C@H](CCC(=O)O)NC(=O)[C@H](CCC(N)=O)NC(=O)[C@@H]1CCCN1C(=O)[C@H](CCC(N)=O)NC(=O)[C@H](Cc1ccc(O)cc1)NC(=O)[C@H](CC(N)=O)NC(=O)[C@@H]1CCCN1C(=O)[C@H](CC(N)=O)NC(=O)[C@H](CC(=O)O)NC(=O)[C@H](Cc1ccccc1)NC(=O)CNC(=O)CNC(=O)[C@H](CO)NC(=O)CNC(=O)[C@H](CO)NC(=O)CCCCCNC(=O)CCCC[C@@H]1SC[C@@H]2NC(=O)N[C@@H]21)C(=O)N[C@@H](CCC(N)=O)C(=O)N[C@@H](C)C(=O)O [BT-STA02] ({Biotin-Ahx}-SGSGGFDNPNYQPQENMQA-OH; C-terminus assumed)

increase in binding affinity (Dab2-DH domain [2]): 2 fold
net release of protons during binding (NH+) (Dab2-DH domain [3]; Tris and phosphate buffers): 0.04 per mole
ΔH (Dab2-DH domain [3]; Tris buffer, 25° C.): -20.7 ± 1.45 kcal/mol
ΔS (Dab2-DH domain [3]; Tris buffer, 25° C.): −37.8 cal/mol/K
TΔS (Dab2-DH domain [3]; estimated, 37° C.): -16.1 kcal/mol
ΔG (Dab2-DH domain [3]; estimated, 37° C.): -8.9 kcal/mol
ΔH (Dab2-DH domain [3]; estimated, 37° C.): -25.0 kcal/mol
change of heat capacity, ΔCp (Dab2-DH domain [3]; from ΔH at 15, 25, and 35° C.): −320 cal/mol/K
Structure (SMILES): CSCC[C@H](NC(=O)[C@H](CC(N)=O)NC(=O)[C@H](CCC(=O)O)NC(=O)[C@H](CCC(N)=O)NC(=O)[C@@H]1CCCN1C(=O)[C@H](CCC(N)=O)NC(=O)[C@H](Cc1ccc(O)cc1)NC(=O)[C@H](CC(N)=O)NC(=O)[C@@H]1CCCN1C(=O)[C@H](CC(N)=O)NC(=O)[C@H](CC(=O)O)NC(=O)[C@H](Cc1ccccc1)NC(=O)CNC(=O)[C@H](CC(N)=O)NC(=O)[C@@H](N)CCC(N)=O)C(=O)N[C@@H](CCC(N)=O)C(=O)N[C@@H](C)C(=O)O [STA02]

Ki (Dab2-DH domain [4]; symbols): +
total fluorescence (Dab2-DH domain [4]; Ki not obtained): increased total fluorescence
Structure (SMILES): OCCN(CCO)c1nc(N2CCCCC2)c2nc(N(CCO)CCO)nc(N3CCCCC3)c2n1 [Compound 5, Dipyridamole]

Ki (Dab2-DH domain [4]; [5]): 779 nM
Ki (Dab2-DH domain [4]; read-out: binding affinity (Ki)): 779 nM
benefit compared to VX809 (ANOVA, P<0.05) (ΔF508-CFTR; 20 μM in combination with VX809 0.1 μM): statistically significant benefit
chloride currents (ΔF508-CFTR): enhanced chloride currents
Structure (SMILES): CC1(C)Cc2ccccc2-c2n[nH]c(=S)n21 [Compound 3, 5,5-dimethyl-5,6-dihydro [1,2,4]triazolo[3,4-a] isoquinoline-3(2H)-thione]
toxicity (CFBE cells; 3 hours): no toxicity

Further lines, the molecule ahead of its results:

Structure (SMILES): CC(C)(C)c1cc(C(C)(C)C)c(NC(=O)c2c[nH]c3ccccc3c2=O)cc1O [KALYDECO, N-(2,4-Di-tert-butyl-5-hydroxyphenyl)-4-oxo-1,4-dihydroquinoline-3-carboxamide]
drop in pulmonary exacerbations [1]: 55%
improvement in lung function (predicted FEV1) [1]: 10.6%
reduction in sweat chloride [1]: 48 mEq/L

Structure (SMILES): Cc1ccc(NC(=O)C2(c3ccc4c(c3)OC(F)(F)O4)CC2)nc1-c1cccc(C(=O)O)c1 [Lumacaftor, 3-{6-{[1-(2,2-difluoro-1,3-benzodioxo1-5-yl)cyclopropanecarbonyl]amino}-3-methylpyridin-2-yl}benzoic acid]
patients with >5% increase in FEV1 (CF patients): 55%
patients with >10% increase in FEV1 (CF patients): 25%

Structure (SMILES): CN1CCc2cccc3c2[C@@H]1Cc1ccc(O)c(O)c1-3.Cl [Compound 1, S(+)-10,11-Dihydroxyaporphine Hydrochloride]
Ki (Dab2-DH domain [4]; [5]): 1920 nM
toxicity, of maximum toxicity (1% TRITON) (CFBE cells; 40 μM): 10%
toxicity (CFBE cells; 40 μM, 24 hours): 20-40%
chloride currents (ΔF508-CFTR): enhanced chloride currents

Structure (SMILES): C[C@]12CC[C@@H]3c4cc(O)c(O)cc4CC[C@H]3[C@@H]1CC[C@@H]2O [Compound 2, 2-Hydroxyestradiol]
toxicity, of maximum toxicity (1% TRITON) (CFBE cells; 40 μM): 10%

Reference: patent US10864248B2, “Dab2 inhibitors for the prevention and treatment of cystic fibrosis” (Trustees of Dartmouth College, priority 2014, dated 2020)
